Data on 38 compounds can be found in the Kinase Knowledgebase extract (Sharma et al. 2016).

The term IC50 denotes the point on the concentration scale where inhibition reaches its midpoint.

Chain of PIK3CA (human) (P42336 whole entry, looked up): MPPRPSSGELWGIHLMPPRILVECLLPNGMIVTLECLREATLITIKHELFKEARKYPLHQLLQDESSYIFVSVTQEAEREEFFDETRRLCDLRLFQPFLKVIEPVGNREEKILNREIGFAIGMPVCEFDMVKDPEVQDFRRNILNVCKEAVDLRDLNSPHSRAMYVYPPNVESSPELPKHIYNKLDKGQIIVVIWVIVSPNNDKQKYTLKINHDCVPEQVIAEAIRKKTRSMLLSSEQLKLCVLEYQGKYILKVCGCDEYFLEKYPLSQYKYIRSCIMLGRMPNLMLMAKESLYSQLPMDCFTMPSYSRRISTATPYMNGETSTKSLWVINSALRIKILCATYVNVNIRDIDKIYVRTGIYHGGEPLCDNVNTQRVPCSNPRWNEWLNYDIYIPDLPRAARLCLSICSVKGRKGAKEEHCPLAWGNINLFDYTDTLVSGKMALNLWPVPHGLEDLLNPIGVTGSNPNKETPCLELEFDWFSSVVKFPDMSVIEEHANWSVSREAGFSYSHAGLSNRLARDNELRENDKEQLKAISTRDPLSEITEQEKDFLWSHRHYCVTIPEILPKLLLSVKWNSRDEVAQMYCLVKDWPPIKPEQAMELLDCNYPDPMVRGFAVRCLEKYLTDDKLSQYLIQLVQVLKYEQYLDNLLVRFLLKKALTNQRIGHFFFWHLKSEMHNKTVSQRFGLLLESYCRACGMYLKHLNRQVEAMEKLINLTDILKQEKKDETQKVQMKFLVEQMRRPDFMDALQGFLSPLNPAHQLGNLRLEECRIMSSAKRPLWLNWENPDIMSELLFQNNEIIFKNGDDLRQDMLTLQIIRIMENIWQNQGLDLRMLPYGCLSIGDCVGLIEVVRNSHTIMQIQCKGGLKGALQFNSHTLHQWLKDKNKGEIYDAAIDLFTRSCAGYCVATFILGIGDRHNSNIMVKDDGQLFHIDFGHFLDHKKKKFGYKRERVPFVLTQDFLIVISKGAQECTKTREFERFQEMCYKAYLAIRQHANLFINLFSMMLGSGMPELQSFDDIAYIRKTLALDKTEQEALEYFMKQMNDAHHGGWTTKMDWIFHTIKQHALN

The test concerns the target PIK3CA (human) (UniProt P42336). Briefly: Assessment of PI3KCA Kinase Activity.
In turn, `N#Cc1c(-c2ccncc2)sc(-c2nnc[nH]2)c1-c1ccc(Cl)cc1Cl` displayed a half-inhibitory concentration (IC50) of 100 to 1000 nM.
For the compound `Cc1nc2ccc(-c3cnn(C)c3)cn2c1-c1nc(-c2ccccc2)c(-c2nc[nH]n2)s1`, the IC50 was less than 100 nM.
`Cc1nn2ccccc2c1-c1nc(-c2cccc(F)c2F)c(-c2nc[nH]n2)s1`: the half-maximal inhibitory concentration (IC50) is less than 100 nM.
In turn, `Cc1nn2ccccc2c1-c1nc(-c2cc(F)ccc2F)c(-c2nc[nH]n2)s1` gave an IC50 of less than 100 nM.
Regarding `CC(=O)Nc1cc(-c2nc(-c3ccc(Cl)cc3Cl)c(-c3nc(C)c[nH]3)s2)ccn1`, the half-maximal inhibitory concentration (IC50) is less than 100 nM.
`Cc1nn2ccc(OCCN3CCN(C)CC3)cc2c1-c1nc(-c2ccccc2)c(-c2nc[nH]n2)s1` registered an IC50 of less than 100 nM.
For `CCOc1nc(-c2ccnc(NC(=O)c3cc(C)on3)c2)sc1-c1nnc[nH]1`, the IC50 lay within 100 to 1000 nM.
For `CCOc1nc(-c2ccnc(NC(=O)CC(C)C)c2)sc1-c1nnc[nH]1`, the 50% inhibitory concentration (IC50) is 100 to 1000 nM.
Compound `CNC(=O)Nc1cc(-c2sc(-c3ncc[nH]3)c(-c3ccc(Cl)cc3Cl)c2C#N)ccn1` showed an IC50 of less than 100 nM.
Compound `N#Cc1c(-c2ccnc(F)c2)sc(-c2nnc[nH]2)c1-c1ccc(Cl)cc1Cl` displayed an IC50 of 100 to 1000 nM.
In the case of `CCOc1nc(-c2ccnc(NC(=O)C(C)C)c2)sc1-c1nnc[nH]1`, the half-inhibitory concentration (IC50) was 100 to 1000 nM.
In turn, `COC(=O)Nc1cc(-c2sc(-c3ncc[nH]3)c(-c3ccc(Cl)cc3Cl)c2C#N)ccn1` showed an IC50 of less than 100 nM.
Compound `CNC(=O)Nc1cc(-c2sc(-c3nnc[nH]3)c(-c3ccc(Cl)cc3Cl)c2C#N)ccn1` displayed an IC50 of less than 100 nM.
In turn, `Cc1nn2ccccc2c1-c1nc(-c2ccoc2)c(-c2nnc[nH]2)s1` displayed an IC50 of less than 100 nM.
`COCCNc1nccc(-c2sc(-c3nnc[nH]3)c(-c3ccc(Cl)cc3Cl)c2C#N)n1` showed an IC50 of less than 100 nM.
The same measure for `Cc1nc2ccc(Br)cn2c1-c1nc(-c2ccccc2)c(-c2nc[nH]n2)s1`: 100 to 1000 nM; for `N#Cc1c(-c2ccnc(NC(=O)C3CCC3)c2)sc(-c2nnc[nH]2)c1-c1ccc(Cl)cc1Cl`: 100 to 1000 nM; for `Cc1nn2ccccc2c1-c1nc(-c2ccc[nH]2)c(-c2nc[nH]n2)s1`: 100 to 1000 nM.
In the case of `Cc1nn2ccccc2c1-c1cc(-c2ccccc2)c(-c2nnc[nH]2)s1`, the IC50 is less than 100 nM.
Under `Cc1nn2ccccc2c1-c1nc(-c2cnc3[nH]ccc3c2)c(-c2nc[nH]n2)s1` stands less than 100 nM; under `Cc1nc2ccc(C(O)CO)cn2c1-c1nc(-c2ccccc2)c(-c2nnc[nH]2)s1` (stereo not drawn), less than 100 nM.
`Cc1nn2ccccc2c1-c1nc(Cc2ccccc2)c(-c2nnc[nH]2)s1` showed a 50% inhibitory concentration (IC50) of 100 to 1000 nM.
In turn, `CC(=O)Nc1cc(-c2nc(-c3cccc(OC(F)(F)F)c3)c(-c3ncc[nH]3)s2)ccn1` had an IC50 of 100 to 1000 nM.
Compound `O=C1CCc2c(-c3cc(-c4ccc(Cl)cc4Cl)c(-c4ncc[nH]4)s3)ccnc2N1` came in with an IC50 of less than 100 nM.
Regarding `CNc1ncc(Cl)c(-c2sc(-c3nnc[nH]3)c(-c3ccc(Cl)cc3Cl)c2C#N)n1`, the IC50 fell in the range of 100 to 1000 nM.
`Cc1nn2ccccc2c1-c1nc(OCc2ccccc2)c(-c2nnc[nH]2)s1`: the IC50 was less than 100 nM.
Compound `O=C(Nc1cc(-c2nc(-c3ccccc3)c(-c3nnc[nH]3)s2)ccn1)C1CC1` returned a half-inhibitory concentration (IC50) of less than 100 nM.
Take `CC(=O)Nc1cc(-c2nc(-c3cc(Cl)ccc3Cl)c(-c3ncc[nH]3)s2)ccn1`: the IC50 is less than 100 nM.
Take `COC(=O)Nc1cc(-c2nc(-c3ccc(Cl)cc3Cl)c(-c3ncc[nH]3)s2)ccn1`: the IC50 was less than 100 nM.
In turn, `Cc1nn2ccsc2c1-c1nc(OCc2ccccc2)c(-c2nnc[nH]2)s1` had an IC50 of less than 100 nM.
`Cc1nn2ccccc2c1-c1nc(-c2cc(C=O)ccc2Cl)c(-c2nnc[nH]2)s1`: the half-maximal inhibitory concentration (IC50) is less than 100 nM.
The compound `Cc1nn2ccsc2c1-c1nc(-c2nc[nH]n2)c(-c2ccccc2)s1` showed an IC50 of 100 to 1000 nM.
In turn, `N#Cc1c(-c2ccncc2)sc(C(N)=O)c1-c1ccc(Cl)cc1Cl` had a concentration for half-maximal inhibition (IC50) of 100 to 1000 nM.
As for `O=C(CCSc1ccccc1)Nc1cc(-c2nc(-c3ccccc3)c(-c3nnc[nH]3)s2)ccn1`, the half-maximal inhibitory concentration (IC50) is 100 to 1000 nM.
With `CC(=O)N1CCN(Cc2ccc3nc(C)c(-c4nc(-c5ccccc5)c(-c5nc[nH]n5)s4)n3c2)CC1`, the half-maximal inhibitory concentration (IC50) was less than 100 nM.
Regarding `Cc1nc2ccc(CNCCN)cn2c1-c1nc(-c2ccccc2)c(-c2nnc[nH]2)s1`, the IC50 was less than 100 nM.
`Cc1nn2ccccc2c1-c1nc(-c2cnn(Cc3cccnc3)c2)c(-c2nc[nH]n2)s1`: the IC50 fell in the range of 100 to 1000 nM.
In the case of `Clc1ccc(-c2cc(-c3ncnc4[nH]cnc34)sc2-c2ncc[nH]2)c(Cl)c1`, the 50% inhibitory concentration (IC50) was 100 to 1000 nM.
